For experiment [1], the target named is T1, fructose-1,6-bisphosphatase (LmFBPase) (Leishmania major, UniProt O97193).
T1 construct: gene FBP; C-terminal His6-tagged LmFBPase
The experiment can be described thus: PGI/G6PDH coupled enzyme activity assay. The experiment is classed as biochemical.

The target of experiment [2] is T2, fructose-1,6-bisphosphatase (LmFBPase) (Leishmania major, UniProt O97193).
T2 sequence (O97193 1-351): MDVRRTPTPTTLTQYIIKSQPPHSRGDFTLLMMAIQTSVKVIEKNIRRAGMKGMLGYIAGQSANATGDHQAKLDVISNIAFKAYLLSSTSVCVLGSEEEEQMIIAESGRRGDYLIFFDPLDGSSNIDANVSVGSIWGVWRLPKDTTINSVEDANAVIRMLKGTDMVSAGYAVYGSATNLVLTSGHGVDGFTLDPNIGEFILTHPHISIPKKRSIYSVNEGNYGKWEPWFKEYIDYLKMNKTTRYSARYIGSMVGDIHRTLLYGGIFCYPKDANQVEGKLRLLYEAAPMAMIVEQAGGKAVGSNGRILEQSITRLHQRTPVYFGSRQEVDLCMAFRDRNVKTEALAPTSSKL
Also on record: gene FBP.

In experiment [3] the target is T2, fructose-1,6-bisphosphatase (LmFBPase). The experiment can be described thus: co-crystal structure ([…] Å) with AMP; thermal shift. It counts as binding. Also on record: gene FBP; C-terminal His6-tagged LmFBPase, homotetramer.
For experiment [4] the target is unchanged. Kind of experiment: co-crystal structure ([…] Å) with F6P; coupled enzyme assay Ki. It counts as biochemical. Details: gene FBP; C-terminal His6-tagged LmFBPase, homotetramer.

Broadly, the Ki is a dissociation constant, usually derived from enzyme kinetics or from competition with a known ligand. A high value points to a looser hold on the target. Compound `O=P(O)(O)OC[C@H]1O[C@@](CO)(OP(=O)(O)O)[C@@H](O)[C@@H]1O` [Fructose 2,6-bisphosphate] came in with an inhibitory constant (Ki) in experiment [1] of 1.9 µM.
As to `O=P(O)(O)O` [phosphate], the “co-crystal structure (2.8 Å) with Mn2+” value in experiment [2] was “a catalytic product Pi and manganese atoms were found in each active site”.
For the compound `O=P(O)(O)OC[C@H]1OC(O)(CO)[C@@H](O)[C@@H]1O` (stereo partly shown) [fructose 6-phosphate], the “co-crystal structure (2.62 Å) with AMP; thermal shift” value in experiment [3] is recorded as “The catalytic product F6P was found in each of the active sites of the four subunits”.
In the case of `Nc1ncnc2c1ncn2[C@@H]1O[C@H](COP(=O)(O)O)[C@@H](O)[C@H]1O` [AMP], the Ki in experiment [4] is 63.8 µM.
